Reference: patent US7217808B2, “RFRP-3 and DNA thereof” (Takeda Pharmaceutical Company, Ltd., priority 2001, dated 2007)

Tests used:
rOT7T022L = target: T1, rOT7T022L (Rattus norvegicus, UniProt Q9EP86); assay: Cytosensor acidification rate of rOT7T022L receptor-expressing CHO cells; format: cell-based; settings: peptide exposure 7 min 2 sec
T1 construct: expressed in transfected cells; host or cells: CHO dhfr- cells (clone CHO-rOT7T022L)
Source text: The rOT7T022L receptor-expressing CHO cells obtained in (2) in Reference Example 7 were sown in cytosensor capsules at 2.7×10^5 cells/capsule. After overnight culture, the capsules were mounted in the work station of a cytosensor. The assay medium (0.1% bovine serum albumin-containing low buffered RPMI1640 medium) positioned in the flow route of the cytosensor was supplied to the cells under pump ON (80 sec)/pump OFF (40 sec) cycles. In each cycle, the change ratio of extracellular pH for 30 sec starting from 8 sec after the stop of the pump was calculated as acidification rate. The time course of acidification rate was monitored. When this rate began to show stable values, the flow route was shifted to thereby expose individual peptide to the cells for 7 min and 2 sec. The values of acidification rate in individual wells were normalized taking the values for the 3 cycles immediately before the peptide exposure as 100%.

human-type OT7T022 = target: T2, human-type OT7T022 (Homo sapiens, UniProt Q9GZQ6); assay: Binding inhibition of 125I-Tyr-hRFRP-3(8) to membrane fraction from human-type OT7T022-expressing CHO cells; settings: room temperature 1.5 hr
T2 construct: expressed in transfected cells; host or cells: CHO cells
Method: With this buffer, the membrane fraction from human-type OT7T022-expressing CHO cells was diluted to give a concentration of 1 μg/25 μl. […] Sample solutions prepared, NSB and the assay buffer were dispensed into polypropylene 96-well plates in quadruplicate as total 50 μl/well. […] Twenty-five microliter of the membrane fraction solution from human-type OT7T022-expressing CHO cells was added thereto, agitated with a plate mixer and incubated at room temperature for 1.5 hr. Using a cell harvester for 96-well plates, the contents of each well were adsorbed onto a filter unit (GF/C, treated with polyethylene imine) pre-moisturized with washing buffer (50 mM Tris-HCl, pH 7.5). After washing 5 times with the washing buffer, the adsorbate was dried thoroughly. The lower part of the filter unit was sealed. Then, 50 μl of liquid scintillator was added to each well and the upper part of the filter unit was sealed. Radioactivity was measured with a Top Count (Packard), and data were analyzed in triplicate.

adult male Wistar rats = assay: Plasma pituitary hormone levels after administration into the third ventricle; format: in vivo, rat; settings: 10 mnol into the third ventricle; for plasma prolactin levels: vs PBS control
Method: Effects of the administration of the peptide represented by SEQ ID NO: 39 into the third ventricle upon pituitary hormone levels were examined. Briefly, adult male Wistar rats (body weight 290–350 g at the time of surgery) were anesthetized by intraperitoneal administration of 50 mg/kg pentobarbital and fixed in a stereotaxic apparatus for rat brain. The incisor bar was set 3.3 mm below the interaural line. The skull surface was exposed, and a hole was drilled in the skull with a dental drill in order to implant a guide cannula Further, an anchor screw was embedded at one place around the hole. A stainless guide cannula AG-12 (inside dia. 0.4 mm, outside dia. 0.5 mm; Eicom) was inserted so that its tip is located above the third ventricle. The stereotaxic coordinates were set as follows according to the atlas of Paxinos and Watson (1998): AP: +7.2 mm (from the interaural line), L: 0.0 mm, H: +2.0 mm (from the interaural line). The guide cannula was fixed onto the skull with instant glue, dental cement and the anchor screw. A stainless dummy cannula AD-12 (outside dia. 0.35 mm; Eicom) was inserted into the guide cannula and fixed with a cap nut (Eicom). After the surgery, the rats were bred separately in individual cages for more than one week to allow recovery.
The day before the experiment, the rats that had undergone the above surgery were anesthetized by intraperitoneal administration of 50 mg/kg pentobarbital and fixed on anatomical pads in face-up position. Then, a catheter (SP35; Natsume Seisakusho) was inserted into the right jugular vein. The next day, 400 μl of blood was taken from the jugular vein. In order to prevent blood coagulation, 20 μl of physiological saline containing 200 units/ml heparin was put in advance in the injection syringe. The cap nut and the dummy cannula installed on the rat skull were removed. Instead of them, a stainless microinjection cannula AMI13 (inside dia. 0.17 mm, outside dia. 0.35 mm; Eicom) connected with a Teflon tube (length 50 cm, inside dia. 0.1 mm, outside dia. 0.4 mm; Eicom) was inserted into the guide cannula. The length of the microinjection cannula was adjusted in advance so that 1 mm of its tip is exposed from the guide cannula. One end of the Teflon tube was connected with a microsyringe pump. Then, a total 10 μl of PBS alone or PBS containing the peptide represented by SEQ ID NO: 39 was injected into the third ventricle at a flow rate of 5 μl/min. One minute after the completion of the injection, the microinjection cannula was removed, and a dummy cannula was fixed again with a cap nut. A 400 μl blood sample was taken from the cannula inserted into the jugular vein immediately before the start of the intraventricular administration and at 10, 20, 30, 40 and 60 min after the start of the intraventricular administration. The collected blood was centrifuged at 5,000 rpm for 10 min in a high-speed refrigerated microcentrifuge (MR-150; Tomy Seiko) to recover the supernatant (plasma). The prolactin levels in the plasma were measured by radioimmunoassay.
The results are expressed as mean±S.E.M. Whether there is a significant difference between the group to which PBS containing the peptide represented by SEQ ID NO: 39 was administered and the control group to which PBS alone was administered was tested by Student's t-test. Differences were assessed with two-sided tests, and significance level 5% or below was judged statistically significant.

Human OT7T022 receptor = target: T3, Human OT7T022 receptor (Homo sapiens, UniProt Q9GZQ6); assay: Effect of pertussis toxin upon activation of human OT7T022 receptor (cAMP production inhibition); format: cell-based; settings: 0.1 μM peptide, 1 μM forskolin, 100 ng/ml pertussis toxin overnight
T3 construct: expressed in transfected cells; host or cells: CHO cells
Method: The human OT7T022 receptor-expressing CHO cells obtained in Example A8 were plated in 24-well plates at 1×10^5 cells/well and cultured overnight. Then, the medium was changed for 100 ng/ml pertussis toxin (Sigma)-containing medium or a control medium, and the cells were cultured overnight. The cells were washed with Hanks' buffer (HBSS) supplemented with 0.05% BSA and 0.2 mM IBMX and then pre-incubated in the same buffer at 37° C., for 30 min. Subsequently, the buffer was exchanged for HBSS supplemented with 0.05% BSA and 0.2 mM IBMX, HBSS supplemented with 1 μM forskolin alone, or HBSS supplemented with 1 μM forskolin and a peptide at various concentrations, and the cells were incubated at 37° C. for 30 min. After the incubation, the buffer was exchanged for HBSS supplemented with 0.05% BSA and 0.2 mM IBMX (black column), this buffer supplemented with 1 μM forskolin alone (white column), or this buffer supplemented with 1 μM forskolin and 0.1 μM RFRP-1-12 (peptide having the amino acid sequence which is from position 81 (Met) to position 92 (Phe) of SEQ ID NO: 1) (column with slant lines), and the cells were incubated at 37° C. for 30 min. After the incubation, intracellular cAMP was extracted and determined for each well according to the protocol attached to the cAMP EIA Kit (Amersham). […]

T1 sequence (Q9EP86 whole entry): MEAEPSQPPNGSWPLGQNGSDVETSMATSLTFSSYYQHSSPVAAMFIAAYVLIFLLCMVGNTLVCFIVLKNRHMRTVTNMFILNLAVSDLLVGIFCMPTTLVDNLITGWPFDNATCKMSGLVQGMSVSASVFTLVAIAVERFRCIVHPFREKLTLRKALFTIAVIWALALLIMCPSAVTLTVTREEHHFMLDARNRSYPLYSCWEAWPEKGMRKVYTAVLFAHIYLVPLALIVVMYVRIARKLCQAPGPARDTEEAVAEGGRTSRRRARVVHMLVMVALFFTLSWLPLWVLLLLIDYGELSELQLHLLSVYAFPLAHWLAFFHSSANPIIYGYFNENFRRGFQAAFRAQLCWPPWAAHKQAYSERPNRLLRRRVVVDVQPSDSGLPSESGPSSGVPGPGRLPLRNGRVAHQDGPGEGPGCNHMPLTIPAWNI
T2 sequence (Q9GZQ6 whole entry): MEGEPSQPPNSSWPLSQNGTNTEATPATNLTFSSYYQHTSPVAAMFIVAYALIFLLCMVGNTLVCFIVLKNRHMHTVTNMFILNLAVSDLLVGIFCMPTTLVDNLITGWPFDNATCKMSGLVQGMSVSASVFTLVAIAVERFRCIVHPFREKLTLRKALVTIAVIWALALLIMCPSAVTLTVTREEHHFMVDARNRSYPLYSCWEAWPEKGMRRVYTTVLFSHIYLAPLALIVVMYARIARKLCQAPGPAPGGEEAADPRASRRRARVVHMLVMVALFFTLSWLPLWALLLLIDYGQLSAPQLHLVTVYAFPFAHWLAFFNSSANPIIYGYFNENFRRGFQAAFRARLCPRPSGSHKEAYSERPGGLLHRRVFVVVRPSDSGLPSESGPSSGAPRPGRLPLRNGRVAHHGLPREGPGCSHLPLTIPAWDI
T3 sequence (Q9GZQ6 whole entry): as above

| Molecule | reactivity of rOT7T022L receptor-expressing CHO cells (acidification rate) (rOT7T022L) | IC50 (human-type OT7T022) [nM] | ACTH level in the plasma (adult male Wistar rats) | GH level in the plasma (adult male Wistar rats) | LH level in the plasma (adult male Wistar rats) | TSH level in the plasma (adult male Wistar rats) | plasma prolactin levels (adult male Wistar rats; 60 min after administration) | plasma prolactin levels (adult male Wistar rats; at 20, 30 and 40 min after administration) | plasma prolactin levels (adult male Wistar rats; from 10 min after administration) | cAMP production inhibitory activity in cells treated with pertussis toxin (Human OT7T022 receptor) |
| --- | --- | --- | --- | --- | --- | --- | --- | --- | --- | --- |
| CC(C)C[C@H](NC(=O)[C@H](CC(N)=O)NC(=O)[C@@H]1CCCN1C(=O)[C@@H](N)C(C)C)C(=O)N1CCC[C@H]1C(=O)N[C@@H](CCC(N)=O)C(=O)N[C@@H](CCCNC(=N)N)C(=O)N[C@@H](Cc1ccccc1)C(N)=O | reactive |  |  |  |  |  |  |  |  |  |
| H-ATANLPLRSGRNMEVSLVRRVPNLPQRF-NH2 [hRFRP-3 (28)] |  | 1.6 |  |  |  |  |  |  |  |  |
| H-MPHSFANLPLRF-NH2 | reactive |  | did not show significant changes | did not show significant changes | did not show significant changes | did not show significant changes | significant difference was observed | increased significantly | increasing tendency | disappeared |
